Values of other authors, collected in patent US8614228B2, “Quinone prodrug compositions and methods of use” (ArQule, Inc., priority 2004, dated 2013).

Tested on: normal fresh or proliferating human PBMC

Structure (SMILES): CC1(C)CCC2=C(O1)c1ccccc1C(=O)C2=O [β-lapachone, 3,4-dihydro-2,2-dimethyl-2H-naphtho[1,2-b]pyran-5,6-dione]
- cytotoxic effects: No cytotoxic effects were observed
